According to patent US10058550B2, “Methods of treating heart failure” (priority 2015, dated 2018):

Molecular target: human APJ receptor (Homo sapiens (Human), UniProt P35414)
Assay: biochemical
Assay type: biochemical
Settings: read-out: Activity hAPJ SPA EC50 IP
Outline: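 Agonist-stimulated [35S]GTPγS (0.2 nM) binding was read by SPA after 90 min at room temperature. Buffer: 20 mM HEPES pH 7.5 with 5 mM MgCl2, 200 mM NaCl, 3 μM GDP, 0.1% BSA; membranes were from a stable human APJ CHO line. EC50 values are averages of independent runs, fitted by non-linear regression.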

human APJ receptor, sequence (P35414 whole entry): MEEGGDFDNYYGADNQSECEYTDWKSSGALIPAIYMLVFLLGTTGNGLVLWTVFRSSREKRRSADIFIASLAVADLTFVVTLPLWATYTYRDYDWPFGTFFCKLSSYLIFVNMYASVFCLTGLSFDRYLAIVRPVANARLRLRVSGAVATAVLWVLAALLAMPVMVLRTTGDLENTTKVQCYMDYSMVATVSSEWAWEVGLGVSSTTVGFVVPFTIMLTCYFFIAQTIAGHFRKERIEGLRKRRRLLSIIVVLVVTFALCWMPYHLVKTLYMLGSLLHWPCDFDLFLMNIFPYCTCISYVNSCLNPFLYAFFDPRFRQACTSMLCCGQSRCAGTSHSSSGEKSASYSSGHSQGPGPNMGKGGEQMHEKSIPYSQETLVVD

Row | SMILES | EC50 [nM]
1 | COc1ncnc(OC)c1-n1c(NS(=O)(=O)[C@@H]2C[C@H](OC)CN(c3ncc(F)cn3)C2)nnc1-c1cccnc1 (stereo in doubt) [Example 814.0, (3R,5S)-N-(4-(4,6-dimethoxy-5-pyrimidinyl)-5-(3-pyridinyl)-4H-1,2,4-triazol-3-yl)-1-(5-fluoro-2-pyrimidinyl)-5-methoxy-3-piperidinesulfonamide, (3R,5S)-N-(4-(4,6-dimethoxy-5-pyrimidinyl)-5-(3-pyridinyl)-4H-1,2,4-triazol-3-yl)-1-(5-fluoro-2-pyrimidinyl)-5-methoxy-3-piperidinesulfonamide] | 560
2 | COc1ncnc(OC)c1-n1c(NS(=O)(=O)[C@@H]2C[C@@H](OC)CN(c3ncc(F)cn3)C2)nnc1-c1cccnc1 (stereo in doubt) [Example 815.0, (3S,5S)-N-(4-(4,6-dimethoxy-5-pyrimidinyl)-5-(3-pyridinyl)-4H-1,2,4-triazol-3-yl)-1-(5-fluoro-2-pyrimidinyl)-5-methoxy-3-piperidinesulfonamide, (3R,5R)-N-(4-(4,6-dimethoxy-5-pyrimidinyl)-5-(3-pyridinyl)-4H-1,2,4-triazol-3-yl)-1-(5-fluoro-2-pyrimidinyl)-5-methoxy-3-piperidinesulfonamide] | 170
3 | COc1cccc(OC)c1-n1c(NS(=O)(=O)[C@@H]2C[C@@H](OC)CN(c3ncc(F)cn3)C2)nnc1-c1cccnc1 (stereo in doubt) [Example 816.0, (3S,5S)-N-(4-(2,6-dimethoxyphenyl)-5-(3-pyridinyl)-4H-1,2,4-triazol-3-yl)-1-(5-fluoro-2-pyrimidinyl)-5-methoxy-3-piperidinesulfonamide, (3R,5R)-N-(4-(2,6-dimethoxyphenyl)-5-(3-pyridinyl)-4H-1,2,4-triazol-3-yl)-1-(5-fluoro-2-pyrimidinyl)-5-methoxy-3-piperidinesulfonamide] | 18
4 | COc1cccc(OC)c1-n1c(NS(=O)(=O)[C@@H]2C[C@H](OC)CN(c3ncc(F)cn3)C2)nnc1-c1cccnc1 (stereo in doubt) [Example 817.0, (3R,5S)-N-(4-(2,6-dimethoxyphenyl)-5-(3-pyridinyl)-4H-1,2,4-triazol-3-yl)-1-(5-fluoro-2-pyrimidinyl)-5-methoxy-3-piperidinesulfonamide, (3S,5R)-N-(4-(2,6-dimethoxyphenyl)-5-(3-pyridinyl)-4H-1,2,4-triazol-3-yl)-1-(5-fluoro-2-pyrimidinyl)-5-methoxy-3-piperidinesulfonamide] | 16
5 | COc1cccc(OC)c1-n1c(NS(=O)(=O)[C@@H]2C[C@H](OC)CN(c3ncc(F)cn3)C2)nnc1-c1cccnc1 (stereo in doubt) [Example 818.0, (3R,5S)-N-(4-(2,6-dimethoxyphenyl)-5-(3-pyridinyl)-4H-1,2,4-triazol-3-yl)-1-(5-fluoro-2-pyrimidinyl)-5-methoxy-3-piperidinesulfonamide, (3S,5R)-N-(4-(2,6-dimethoxyphenyl)-5-(3-pyridinyl)-4H-1,2,4-triazol-3-yl)-1-(5-fluoro-2-pyrimidinyl)-5-methoxy-3-piperidinesulfonamide] | 110
6 | COc1cccc(OC)c1-n1c(NS(=O)(=O)[C@@H]2C[C@@H](OC)CN(c3ncc(F)cn3)C2)nnc1-c1cccnc1 (stereo in doubt) [Example 819.0, (3S,5S)-N-(4-(2,6-dimethoxyphenyl)-5-(3-pyridinyl)-4H-1,2,4-triazol-3-yl)-1-(5-fluoro-2-pyrimidinyl)-5-methoxy-3-piperidinesulfonamide, (3R,5R)-N-(4-(2,6-dimethoxyphenyl)-5-(3-pyridinyl)-4H-1,2,4-triazol-3-yl)-1-(5-fluoro-2-pyrimidinyl)-5-methoxy-3-piperidinesulfonamide] | 33
7 | COc1cccc(OC)c1-n1c(NS(=O)(=O)[C@H](C)[C@H](OC(C)C)c2cn3ccccc3n2)nnc1-c1cccnc1 (stereo in doubt) [Example 827.0, (1R,2R)-N-(4-(2,6-dimethoxyphenyl)-5-(3-pyridinyl)-4H-1,2,4-triazol-3-yl)-1-imidazo[1,2-a]pyridin-2-yl-1-(1-methylethoxy)-2-propanesulfonamide, (1S,2S)-N-(4-(2,6-dimethoxyphenyl)-5-(3-pyridinyl)-4H-1,2,4-triazol-3-yl)-1-imidazo[1,2-a]pyridin-2-yl-1-(1-methylethoxy)-2-propanesulfonamide] | 10
8 | COc1cccc(OC)c1-n1c(NS(=O)(=O)[C@H](C)[C@H](OC(C)C)c2cn3ccccc3n2)nnc1-c1cccnc1 (stereo in doubt) [Example 828.0, (1R,2R)-N-(4-(2,6-dimethoxyphenyl)-5-(3-pyridinyl)-4H-1,2,4-triazol-3-yl)-1-imidazo[1,2-a]pyridin-2-yl-1-(1-methylethoxy)-2-propanesulfonamide, (1S,2S)-N-(4-(2,6-dimethoxyphenyl)-5-(3-pyridinyl)-4H-1,2,4-triazol-3-yl)-1-imidazo[1,2-a]pyridin-2-yl-1-(1-methylethoxy)-2-propanesulfonamide] | 480
9 | COc1cccc(-c2nnc(NS(C)(=O)=O)n2-c2c(OC)cccc2OC)n1 [Example 4.02, N-(4-(2,6-dimethoxyphenyl)-5-(6-methoxypyridin-2-yl)-4H-1,2,4-triazol-3-yl)methanesulfonamide] | 220
10 | CCS(=O)(=O)Nc1nnc(-c2cccc(OC)n2)n1-c1c(OC)cccc1OC [Example 29.0, N-(4-(2,6-dimethoxyphenyl)-5-(6-methoxypyridin-2-yl)-4H-1,2,4-triazol-3-yl)ethanesulfonamide] | 150
11 | CCS(=O)(=O)Nc1nnc(-c2cccc(C)n2)n1-c1c(OC)cccc1OC [Example 30.0, N-(4-(2,6-dimethoxyphenyl)-5-(6-methylpyridin-2-yl)-4H-1,2,4-triazol-3-yl)ethanesulfonamide] | 830
12 | COc1cccc(-c2nnc(NS(=O)(=O)[C@@H](C)[C@H](OC)c3ncc(C)cn3)n2-c2cccnc2)n1 [Example 33.0, (1R,2S)-1-methoxy-N-(5-(6-methoxypyridin-2-yl)-4-(pyridin-3-yl)-4H-1,2,4-triazol-3-yl)-1-(5-methylpyrimidin-2-yl)propane-2-sulfonamide] | 56
13 | COc1cccc(-c2nnc(NS(=O)(=O)[C@@H](C)[C@H](OC)c3ncc(C)cn3)n2-c2ccccc2)n1 [Example 34.0, (1R,2S)-1-methoxy-N-(5-(6-methoxypyridin-2-yl)-4-phenyl-4H-1,2,4-triazol-3-yl)-1-(5-methylpyrimidin-2-yl)propane-2-sulfonamide] | 4.2
14 | COc1cccc(-c2nnc(NS(=O)(=O)[C@@H](C)[C@H](OC)c3ncc(C)cn3)n2-c2c(OC)ncnc2OC)n1 [Example 35.0, (1R,2S)-N-(4-(4,6-dimethoxypyrimidin-5-yl)-5-(6-methoxypyridin-2-yl)-4H-1,2,4-triazol-3-yl)-1-methoxy-1-(5-methylpyrimidin-2-yl)propane-2-sulfonamide] | 0.54
15 | COc1cccc(-c2nnc(NS(=O)(=O)[C@@H](C)[C@H](OC)c3ncc(C)cn3)n2-c2cc(C(F)(F)F)cc(C(F)(F)F)c2)n1 [Example 39.0, (1R,2S)-N-(4-(3,5-bis(trifluoromethyl)phenyl)-5-(6-methoxypyridin-2-yl)-4H-1,2,4-triazol-3-yl)-1-methoxy-1-(5-methylpyrimidin-2-yl)propane-2-sulfonamide] | 540
16 | COc1cccc(-c2nnc(NS(=O)(=O)[C@@H](C)[C@H](OC)c3ncc(C)cn3)n2-c2c(OC(F)F)cccc2OC(F)F)n1 [Example 41.0, (1R,2S)-N-(4-(2,6-bis(difluoromethoxy)phenyl)-5-(6-methoxypyridin-2-yl)-4H-1,2,4-triazol-3-yl)-1-methoxy-1-(5-methylpyrimidin-2-yl)propane-2-sulfonamide] | 0.22
17 | COc1cccc(-c2nnc(NS(=O)(=O)[C@@H](C)[C@H](OC)c3ncc(C)cn3)n2-c2ccncc2)n1 [Example 42.0, (1R,2S)-1-methoxy-N-(5-(6-methoxypyridin-2-yl)-4-(pyridin-4-yl)-4H-1,2,4-triazol-3-yl)-1-(5-methylpyrimidin-2-yl)propane-2-sulfonamide] | 51
18 | COc1cccc(-c2nnc(NS(=O)(=O)[C@@H](C)[C@H](OC)c3ncc(C)cn3)n2-c2ccc(Cl)cc2)n1 [Example 45.0, (1R,2S)-N-(4-(4-chlorophenyl)-5-(6-methoxy-2-pyridinyl)-4H-1,2,4-triazol-3-yl)-1-methoxy-1-(5-methyl-2-pyrimidinyl)-2-propanesulfonamide] | 96
19 | COc1ccc(-n2c(NS(=O)(=O)[C@@H](C)[C@H](OC)c3ncc(C)cn3)nnc2-c2cccc(OC)n2)cc1 [Example 46.0, (1R,2S)-1-methoxy-N-(4-(4-methoxyphenyl)-5-(6-methoxy-2-pyridinyl)-4H-1,2,4-triazol-3-yl)-1-(5-methyl-2-pyrimidinyl)-2-propanesulfonamide] | 75
20 | COc1cccc(-c2nnc(NS(=O)(=O)[C@@H](C)[C@H](OC)c3ncc(C)cn3)n2-c2cccc(F)c2)n1 [Example 47.0, (1R,2S)-N-(4-(3-fluorophenyl)-5-(6-methoxy-2-pyridinyl)-4H-1,2,4-triazol-3-yl)-1-methoxy-1-(5-methyl-2-pyrimidinyl)-2-propanesulfonamide] | 8.8
21 | CCO[C@H](c1ncc(F)cn1)[C@H](C)S(=O)(=O)Nc1nnc(-c2cccc(OC)n2)n1-c1c(OC)cccc1OC [Example 48.0, (1R,2S)-N-(4-(2,6-dimethoxyphenyl)-5-(6-methoxy-2-pyridinyl)-4H-1,2,4-triazol-3-yl)-1-ethoxy-1-(5-fluoro-2-pyrimidinyl)-2-propanesulfonamide] | 0.18
22 | COc1cnc([C@@H](OC)[C@H](C)S(=O)(=O)Nc2nnc(-c3cccc(OC)n3)n2-c2c(OC)cccc2OC)nc1 [Example 49.0, (1R,2S)-N-(4-(2,6-dimethoxyphenyl)-5-(6-methoxy-2-pyridinyl)-4H-1,2,4-triazol-3-yl)-1-methoxy-1-(5-methoxy-2-pyrimidinyl)-2-propanesulfonamide] | 0.17
